# Test results reported in patent US6495529B1 (Warner-Lambert Company, priority 1998, dated 2002).
# Read-outs that look alike come from different tables or passages of the source.
# What was measured:
# [1] = molecular target: α1-receptors; assay type: binding, dog; details: read-out: Alpha-1 Ki
# Protocol: (§1) The lungs of mongrel dogs were separated from cartilaginous airways and major blood vessels, weighted, chopped and placed into 10 volumes of ice-cold buffered sucrose (50 mM Tris-HCl pH 7.4, 1 mM EGTA, 0.32 M Sucrose). The tissue was then homogenized in a Polytron tissue homogenizer. The homogenate was filtered through two layers of cheesecloth, and the filtrate was dounced three times using a Con-Turque Potter homogenizer. […] The supernatant was recentrifuged at 30,000×g for 30 min at 4° C. and the resulting pellet was washed and resuspended in 10 volumes of Tris buffer (50 mM Tris HCL, pH 7.4, 1 mM EGTA) and incubated at 37° C. for 30 min in a shaking water bath. The suspension was centrifuged at 4° C., at 30,000×g for 30 min and the resulting pellet washed in 10 volumes of Tris buffer. […] Protein concentration was then determined by the Lowry method and the final suspension was adjusted to 10 mg of protein/ml, aliquoted and stored at −90° C.
# Nonspecific binding was determined for each concentration point in separate incubations, with 10 μM phentolamine. Each experimental point was determined in triplicate. […] All binding assay incubations were terminated by rapid dilution with 2 ml of ice-cold wash buffer (50 mM Tris-HCl, pH 7.4) and filtration through Whatman GF/B filters using Brandel receptor-binding harvester.
# (§2) All data were analyzed with the aid of microcomputer nonlinear curve fitting programs (PRISM 2.0, Graphpad Software, San Diego Calif.).
# (§3) The receptors resident in each of the three membrane preparations were evaluated by standard saturation analysis following the addition of increasing concentrations of the appropriate radioligand. […]
# [2] = tested on: rats; experiment: Dosage that raised mean arterial pressure 10% in rat; assay type: in vivo
# [3] = tested on: mongrel dogs; experiment: Intravenous dose increasing mean arterial pressure 10% in anesthetized dogs; details: anesthetized dog, i.v.
# [4] = Locomotor stimulant and depressant effects in mice; details: male, Swiss-Webster, mouse, in vivo, ip
# Protocol: (§4) Male Swiss-Webster mice (HSD ND4, Harlan Sprague Dawley, Houston, Tex.) aged 2-3 months were used in these studies. Each dose group consisted of 8 mice. The mice were housed 2 to 4 per cage in 30.4×22.9×15.2 cm clear polycarbonate cages with food and water available ad libitum for at least one week prior to locomotor activity testing. The colony was maintained at 23±1° C., on a normal light-dark cycle beginning at 0700 hr. All testing took place during the light portion of the light-dark cycle.
# (§5) Horizontal (forward movement) locomotor activity was measured using a standardized, optical activity monitoring system [Model KXYZCM (16), Omnitech Electronics, Columbus, Ohio]. Activity was monitored in forty 40.5×40.5×30.5 cm clear acrylic chambers that where housed in sets of two within larger sound-attenuating chambers. A panel of 16 infrared beams and corresponding photodetectors were spaced 2 cm apart along the sides and 2.4 cm above the floor of each activity chamber. A 7.5-W incandescent light above each chamber provided dim illumination via a rheostat set to 20% of full scale. Fans provided an 80-dB ambient noise level within the chamber.
# (§6) (+)-Amphetamine was used as a positive control. The total horizontal distance traversed (cm) was recorded at 10 minute intervals for a 2-hour session. Separate groups of 8 mice were assigned to each dose or saline group, and dose-effect testing continued for each compound until maximal stimulant or depressant effects could be estimated. A separate control group was tested along with each compound.
# (§7) Using TableCurve 2D v2.03 (Jandel Scientific), the mean average total distance traversed (cm/10 min) for that period was fit to a 3-parameter logistic peak function of log10 dose (with the constant set to the mean of the saline group), and the maximum effect estimated from the resulting curve. The ED50 (dose producing ½ maximal stimulant activity) was estimated from a linear regression against log10 dose of the ascending portion of the dose-effect curve. The stimulant efficacy was the peak effect of the compound (cm/10 min) as estimated from the logistic peak function, minus the mean control distance traveled (cm/10 min), and was expressed for each stimulant compound as a ratio to the stimulant efficacy determined for (+)-amphetamine.
# (§8) The mean average total distance traversed (cm/10 min) for that period were fit to a linear function of log10 dose of the descending portion of the dose-effect curve. […] Efficacy was the ratio of maximal depressant effect to maximum possible depression for each compound (mean average total distance of the control group minus the lowest mean total distance, expressed as a ratio to the control group total distance).
# (§9) Time course data for each compound were considered in 2-way analyses of variance with dose as a between-group and time as a within-group factor. The dose-effect data were considered in 1-way analyses of variance, and planned individual comparisons were conduced between each dose and the saline control group. Interaction studies were considered in 2-way analyses of variance, with Pretreatment and Test dose as the factors.
# [5] = tested on: Swiss-Webster mice; experiment: Locomotor stimulant and depressant effects in mice; details: mice, i.p.; for locomotor depressant effect (in words) / locomotor stimulant effect (in words): 2-hour session
# Protocol: as §4, §5, §6, §7, §8, §9
# [6] = tested on: New Zealand white rabbits; experiment: Intraocular pressure (IOP) after topical application to rabbit eye; details: rabbit; for effect on IOP (in words): topical 1% and 2%, treated eye
# [7] = tested on: New Zealand white rabbits; experiment: Pupil diameter / mydriasis after topical application to rabbit eye; details: for mydriasis / effect on pupil diameter (in words): topical, rabbit
# [8] = tested on: Swiss-Webster mice; details: for modification of stimulant or depressant effects by triprolidine pretreatment: mice pretreated with 0.01, 0.1 or 1.0 mg/kg triprolidine
# [9] = molecular target: α2-receptors; experiment: ALPHA-2 binding, p-125Iodoclonidine, canine brain (frontal cortex) membranes; design: species or system dog; details: for Kd: radioligand
# Protocol: Membranes of mongrel dogs were harvested from the canine frontal cortex and prepared as described for lung except that the final membrane protein concentration was adjusted to 0.5 mg/ml.
# Nonspecific binding was determined in separate incubations in the presence of 10 μM phentolamine. The final concentration of p-iodoclonidine was 44-45 pM in competition studies and between 50 pM and 10 nM in saturation experiments. Bound and free […] were separated and the bound quantitated as described above for the ICYP assays.
# as §2
# The receptors resident in each of the three membrane preparations were evaluated by standard saturation analysis following the addition of increasing concentrations of the appropriate radioligand.
# The radio ligand added for subsequent α2-displacement assays was adjusted to evaluate only the high affinity receptor. Contributions from p-iodoclonidine binding to imidazoline receptors in the α2-displacement assay were evaluated with epinephrine.
# [10] = tested on: histamine-challenged rats; experiment: Nasal airway pressure in histamine-challenged rats; details: Investigation 1, rats
# [11] = tested on: Sprague Dawley rats; experiment: Nasal airway pressure in normal (non-histamine-challenged) rats; details: 100% dose i.v., non-histamine-challenged rats
# [12] = molecular target: T1, β2-receptors (Canis lupus familiaris, UniProt P54833); experiment: BETA-2 binding, 125Iodocyanopindolol (ICYP), canine lung membranes; design: species or system dog; details: radioligand
# T1 construct: The lungs of mongrel dogs were separated from cartilaginous airways and major blood vessels; from tissue; host or cells: mongrel dog lung membranes
# Protocol: as §1
# Particulated were also prepared for β2 receptors using the identical procedure except the final protein concentration was adjusted to 0.1 mg/ml.
# Nonspecific binding was determined in separate incubations in the presence of 2 μM dipropranolol. Each experimental point was determined in triplicate. […] Incubations were terminated as described above for the α1 assays. Filters were placed into polyethylene tubes and the bound ligand was determined by gamma spectrometry (Sano et al., 1993).
# as §2, §3
# [13] = Table 4, no unit in table, IC50 defined in μM, read-out: Alpha-2 IC50
# T1 sequence (P54833 whole entry): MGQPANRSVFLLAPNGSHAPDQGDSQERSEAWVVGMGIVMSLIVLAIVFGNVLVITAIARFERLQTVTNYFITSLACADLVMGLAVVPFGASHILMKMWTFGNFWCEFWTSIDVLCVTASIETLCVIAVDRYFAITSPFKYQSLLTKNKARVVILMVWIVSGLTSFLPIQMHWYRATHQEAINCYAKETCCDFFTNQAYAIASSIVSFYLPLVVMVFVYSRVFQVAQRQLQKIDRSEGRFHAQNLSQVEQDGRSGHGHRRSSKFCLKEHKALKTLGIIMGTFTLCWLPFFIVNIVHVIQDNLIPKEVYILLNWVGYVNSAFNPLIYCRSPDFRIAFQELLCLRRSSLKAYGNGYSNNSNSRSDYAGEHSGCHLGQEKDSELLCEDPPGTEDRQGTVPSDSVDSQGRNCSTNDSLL
compound,measurement,setting,value
"CN[C@@H](C)[C@@H](O)c1ccccc1 (single isomer, unassigned) [(+)-pseudoephedrine]",Ki,[1],[…]
same,ED50 at 30 min,[4],12.6 mg/kg
same,locomotor depressant effect (in words),[5],some locomotor depression
same,locomotor stimulant effect (in words),[5],"negligible stimulation compared to (−)-ephedrine, but weak stimulation when comared to (+)-amphetamine"
same,effect on IOP (in words),[6],slight acute elevation in IOP in the treated eye
same,effect on IOP in the contralateral eye (in words),[6]; topical,delayed elevation in IOP
same,mydriasis / effect on pupil diameter (in words),[7],produced mydriasis in the treated eye
same,reversal of locomotor depression by triprolidine,"[8]; 25, 50 or 100 mg/kg test drug, following 0.01 mg/kg triprolidine",reversed
same,reversal of locomotor depression by triprolidine,[8]; following 1.0 mg/kg triprolidine,no significant reversal
same,modification of stimulant or depressant effects by triprolidine pretreatment,[8],Significant effects for pretreatment with triprolidine
"CN[C@H](C)[C@H](O)c1ccccc1 (single isomer, unassigned) [(−)-pseudoephedrine]",decongestant activity (in words),[10],"as good as, or superior to, several commercially available decongestants"
same,ED50 at 30 min,[4],14.6 mg/kg
same,"Depression Potency (ID50, dose resulting in ½ the maximal depressant effect)",[5],38.5 mg/kg
same,locomotor depressant effect (in words),[5],some locomotor depression
same,locomotor stimulant effect (in words),[5],"negligible stimulation compared to (−)-ephedrine, but weak stimulation when comared to (+)-amphetamine"
same,effect on IOP (in words),[6],Little or no increase in intraocular pressure
same,mydriasis / effect on pupil diameter (in words),[7],produced mydriasis in the treated eye only
same,modification of stimulant or depressant effects by triprolidine pretreatment,[8],did not show significant modification of stimulant or depressant effects
"CC(N)Cc1ccccc1 (single isomer, unassigned; (+)) [(+)-amphetamine]",locomotor depressant effect (in words),[5],did not cause locomotor depression
same,locomotor stimulant effect (in words),[5],dose- and time-dependent increase in the distance traversed
same,onset of increased locomotion after injection,[5]; (−)-ephedrine: following 50 to 100 mg/kg,≤ 10 min
CN[C@H](C)[C@@H](O)c1ccccc1 [(+)-ephedrine],"Depression Potency (ID50, dose resulting in ½ the maximal depressant effect)",[5],7.4 mg/kg
same,"Stimulation Potency (ED50, dose resulting in ½ the maximal stimulant effect)",[5],38.2 mg/kg
"CNC[C@H](O)c1ccc(O)c(O)c1 [Epinephrine, epinephrine]",displacement of bound p-iodoclonidine,[9]; check for imidazoline receptor labelling,easily displaced all bound p-iodoclonidine
"CC(C)(C)NCC(O)COc1cccc2[nH]c(C#N)c(I)c12 (stereo not shown) [ICYP, iodocyanopindolol]",Bmax,"[12]; Saturation Analysis, Run 1",149 femtomoles per mg protein
same,Kd,"[12]; Saturation Analysis, Run 1",0.0096 nM
same,Bmax,"[12]; Saturation Analysis, Run 2",142 femtomoles per mg protein
same,Kd,"[12]; Saturation Analysis, Run 2",0.0093 nM
same,Bmax,"[12]; Saturation Analysis, Summary",146 femtomoles per mg protein
same,Kd,"[12]; Saturation Analysis, Summary",0.0095 nM
same,Bmax,"[12]; Scatchard Analysis, Run 1",150 femtomoles per mg protein
same,Kd,"[12]; Scatchard Analysis, Run 1",0.0099 nM
same,Bmax,"[12]; Scatchard Analysis, Run 2",139 femtomoles per mg protein
same,Kd,"[12]; Scatchard Analysis, Run 2",0.0078 nM
same,Bmax,"[12]; Scatchard Analysis, Summary",145 femtomoles per mg protein
same,Kd,"[12]; Scatchard Analysis, Summary",0.0089 nM
Clc1cc(I)cc(Cl)c1NC1=NCCN1 [p-iodoclonidine],Kd,"[9]; Saturation Analysis, read-out: Kd1 (high affinity)",0.15 nM
same,Kd,"[9]; Saturation Analysis, read-out: Kd2 (low affinity)",3.01 nM
same,Kd,"[9]; Scatchard Analysis, read-out: Kd1 (high affinity)",0.15 nM
same,Kd,"[9]; Scatchard Analysis, read-out: Kd2 (low affinity)",0.87 nM
Cc1ccc(/C(=C\CN2CCCC2)c2ccccn2)cc1 [triprolidine],"effect on horizontal distance, triprolidine alone","[8]; 0.25 to 25 mg/kg, injected immediately prior to testing, 2-hour test",failed to affect horizontal distance
same,"effect on locomotion, triprolidine alone",[8]; 50 and 100 mg/kg,Dose-dependent depression of locomotion
